Measured values from patent publication US8383817B2, “Benztropine compounds and uses thereof” (The United States of America, as represented by the …, priority 2005, dated 2013).
Where two headings read alike, the source gives them in different places.

Columns and labels:
DAT [1] = target: T1, DAT (Rattus norvegicus, UniProt P23977); assay: biochemical; type: binding
T1 construct: their brains removed to an ice-cooled dish for dissection of the caudate putamen; from tissue; host or cells: rat caudate putamen homogenate

NET [2] = type: binding, rat
muscarinic M1 receptor [3] = target: T2, muscarinic M1 receptor (Rattus norvegicus, UniProt P08482); assay: [3H]Pirenzepine Binding Assay, rat brain membranes
T2 construct: Membranes from frozen rat brains excluding cerebellum were thawed; from tissue; host or cells: rat brain (excluding cerebellum) membranes
T2 sequence (P08482 1-460): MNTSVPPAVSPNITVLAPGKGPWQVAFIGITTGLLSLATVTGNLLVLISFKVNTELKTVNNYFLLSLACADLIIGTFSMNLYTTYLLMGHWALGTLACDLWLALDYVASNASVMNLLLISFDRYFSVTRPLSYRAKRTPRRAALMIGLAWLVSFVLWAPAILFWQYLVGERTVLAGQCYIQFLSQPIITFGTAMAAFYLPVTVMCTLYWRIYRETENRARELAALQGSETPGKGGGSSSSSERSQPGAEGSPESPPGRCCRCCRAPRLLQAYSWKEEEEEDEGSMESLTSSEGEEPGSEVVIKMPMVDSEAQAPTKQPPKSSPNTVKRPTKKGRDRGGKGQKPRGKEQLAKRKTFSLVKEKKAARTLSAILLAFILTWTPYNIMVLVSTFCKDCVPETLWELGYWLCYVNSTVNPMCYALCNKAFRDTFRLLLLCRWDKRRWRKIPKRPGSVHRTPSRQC

SERT [4] = target: T3, SERT (Rattus norvegicus, UniProt P31652); assay: [3H]Citalopram Binding Assay, rat midbrain membranes; conditions: for Ki: rat brain membranes, read-out: SERT [3H]citalopram Ki ± SEM
T3 construct: Membranes from frozen rat midbrain were homogenized; from tissue; host or cells: rat midbrain membranes

NET [5] = target: T4, NET (Rattus norvegicus, UniProt Q63380); type: binding; conditions: read-out: NET [3H]nisoxetine Ki ± SEM; rat brain membranes; incubation time 1 h
[6] = target: T5, dopaminergic transporter sites (Mus musculus, UniProt Q61327); assay: In vivo binding of [125I]RTI-121 (displacement in striatum); conditions: mice
T5 construct: Whole brains were rapidly removed and striatum and cerebellum were dissected on ice; from tissue; host or cells: mouse striatum, in vivo occupancy
From the text: In vivo binding of [^125I]RTI-121. Each animal received an i.v. injection of 2 μCi of [^125I]RTI-121. Two hours after administration of [^125I]RTI-121, the animals were sacrificed by cervical dislocation. In each mouse, displacement of [^125I]RTI-121 was examined by giving an i.p. injection of one of the displacers at various doses and times relative to sacrifice, Displacement by test drugs at various doses was examined at various times after their injection, with each data point determined in sets of approximately six mice. Whole brains were rapidly removed and striatum and cerebellum were dissected on ice.
Regional radioactivity levels were divided by weight (gram) of the tissue (CPM/tissue weight). Specific binding was calculated as CPM/tissue weight in striatum divided by cerebellum minus 1 (S/C−1), which is based on the observation that dopaminergic transporter sites are highly concentrated in the striatum and relatively absent in the cerebellum. These values were expressed as a percentage of specific binding after vehicle injection. Data were analyzed using two-way analysis of variance (ANOVA), and a post-hoc Tukey's test was used to determine significance of effects for individual doses at different time periods following IP injection of compound 1a (FIG. 3A), 1b (FIG. 3B), MFZ 2-74 (R^1=Me; R^2,3=F; R^4=CO2-^iPr) (FIG. 3C), 15 (FIG. 3D), and 14 (FIG. 3E). […]

[7] = Model For Reducing Effect of Nicotine (nicotine discrimination); type: in vivo, rat; conditions: rats; dose 3.0 mg/kg; nicotine only control 50%
From the text: Model For Reducing Effect of Nicotine. Food-deprived rats were trained to press one lever for a food pellet after nicotine administration and a second lever after vehicle administration. Pellets of food were delivered intermittently, so that every twentieth response produced food. Using this procedure, the only cue for the rat regarding which lever occasionally pays off with a food pellet, is the subjective effect of the nicotine. When the rats were accurately and reliably identifying the nicotine injections (approximately all of its responses on the lever that occasionally pays off after nicotine or saline), testing began. The rats were pretreated with a compound of Formula III before nicotine injection, and the experiment progressed as described above, except responses on either lever intermittently produced food. A 50% effective nicotine dose was reduced to low levels of effectiveness upon administration of a compound of Formula III.

DAT [8] = target: T1, DAT
muscarinic M1 receptor [9] = target: T2, muscarinic M1 receptor; conditions: read-out: M1 [3H]pirenzepine Ki ± SEM, cited from earlier work
NET [10] = target: T4, NET; conditions: read-out: NET [3H]nisoxetine Ki ± SEM; comparative data taken from Agoston et al. 1997; cited from earlier work
SERT [11] = target: T3, SERT; conditions: read-out: SERT [3H]citalopram Ki ± SEM, cited from earlier work
[12] = read-out: DAT [3H]WIN 35,428 Ki ± SEM
[13] = ratio of respective Ki values, greater than 1 = DAT selective
[14] = rat brain membranes, read-out: M1 [3H]pirenzepine Ki ± SEM
[15] = comparative data taken from Agoston et al. 1997

T3 sequence (P31652 whole entry): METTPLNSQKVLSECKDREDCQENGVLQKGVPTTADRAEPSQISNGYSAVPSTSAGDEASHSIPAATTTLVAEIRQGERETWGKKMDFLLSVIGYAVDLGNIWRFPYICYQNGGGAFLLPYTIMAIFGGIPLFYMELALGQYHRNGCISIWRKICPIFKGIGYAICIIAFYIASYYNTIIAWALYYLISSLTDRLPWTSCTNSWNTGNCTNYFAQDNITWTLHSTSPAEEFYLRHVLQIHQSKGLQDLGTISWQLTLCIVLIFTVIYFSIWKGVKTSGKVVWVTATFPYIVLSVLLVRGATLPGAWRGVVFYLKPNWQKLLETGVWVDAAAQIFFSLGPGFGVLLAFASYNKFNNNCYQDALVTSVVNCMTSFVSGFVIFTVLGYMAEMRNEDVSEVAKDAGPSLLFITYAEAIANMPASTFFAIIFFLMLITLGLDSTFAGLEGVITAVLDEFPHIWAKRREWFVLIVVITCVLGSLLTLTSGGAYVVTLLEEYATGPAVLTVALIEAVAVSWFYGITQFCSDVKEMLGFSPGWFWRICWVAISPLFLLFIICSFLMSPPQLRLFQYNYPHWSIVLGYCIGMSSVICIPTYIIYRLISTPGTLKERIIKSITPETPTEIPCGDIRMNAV
T4 sequence (Q63380 1-617): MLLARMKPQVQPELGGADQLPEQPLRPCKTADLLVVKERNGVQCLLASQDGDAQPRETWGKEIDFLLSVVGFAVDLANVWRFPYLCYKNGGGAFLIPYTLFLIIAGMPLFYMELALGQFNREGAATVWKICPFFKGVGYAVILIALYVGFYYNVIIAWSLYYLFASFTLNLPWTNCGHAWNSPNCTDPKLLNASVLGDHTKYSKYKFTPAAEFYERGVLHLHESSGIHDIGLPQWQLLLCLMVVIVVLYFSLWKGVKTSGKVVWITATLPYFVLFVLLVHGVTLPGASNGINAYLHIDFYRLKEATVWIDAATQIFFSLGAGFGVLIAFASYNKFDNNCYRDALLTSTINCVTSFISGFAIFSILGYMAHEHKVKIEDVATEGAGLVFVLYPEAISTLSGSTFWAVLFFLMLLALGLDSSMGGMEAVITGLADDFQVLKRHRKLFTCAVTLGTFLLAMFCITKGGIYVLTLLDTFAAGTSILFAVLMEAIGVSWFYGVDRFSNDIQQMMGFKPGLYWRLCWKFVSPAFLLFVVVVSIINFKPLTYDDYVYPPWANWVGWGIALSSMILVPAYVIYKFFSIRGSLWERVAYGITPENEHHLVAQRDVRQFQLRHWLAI
T1 sequence (P23977 whole entry): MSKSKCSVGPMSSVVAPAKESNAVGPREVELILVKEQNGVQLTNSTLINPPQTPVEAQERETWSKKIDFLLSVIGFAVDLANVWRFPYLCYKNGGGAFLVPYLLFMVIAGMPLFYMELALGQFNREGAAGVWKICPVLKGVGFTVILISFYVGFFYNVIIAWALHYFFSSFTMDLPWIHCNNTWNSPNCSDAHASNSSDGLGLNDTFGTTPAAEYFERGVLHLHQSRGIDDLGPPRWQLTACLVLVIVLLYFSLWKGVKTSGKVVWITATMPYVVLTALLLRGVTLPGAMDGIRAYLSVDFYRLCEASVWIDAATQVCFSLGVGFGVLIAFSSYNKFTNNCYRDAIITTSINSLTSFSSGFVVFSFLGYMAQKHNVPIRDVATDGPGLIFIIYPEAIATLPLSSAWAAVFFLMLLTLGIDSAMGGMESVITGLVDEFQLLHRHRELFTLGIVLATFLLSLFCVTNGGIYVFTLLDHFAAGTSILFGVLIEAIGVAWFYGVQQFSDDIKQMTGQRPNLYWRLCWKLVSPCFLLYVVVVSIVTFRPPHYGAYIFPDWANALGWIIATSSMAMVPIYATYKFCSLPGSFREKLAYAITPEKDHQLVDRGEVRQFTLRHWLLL
T5 sequence (Q61327 whole entry): as the sequence (P23977 whole entry) above, with S21P, A57V, A194S, H600R, L619V counted along it

| SMILES | Ki (DAT [1]; [12]) | Binding selectivity DAT/NET (NET [2]; [13]) | Ki (muscarinic M1 receptor [3]; [14]) | Ki (SERT [4]) | Binding selectivity DAT/SERT (SERT [4]; [13]) | Binding selectivity DAT/M1 (muscarinic M1 receptor [3]; [13]) | further results |
| --- | --- | --- | --- | --- | --- | --- | --- |
| CCOC(=O)C1C(OC(c2ccc(Cl)cc2)c2ccc(Cl)cc2)CC2CCC1N2C (racemic) [(±)-15] |  |  |  |  |  |  | Ki (DAT [1]; read-out: DAT binding Ki): 22 ± 0.84 nM |
| CCOC(=O)[C@@H]1C2CCC(C[C@@H]1OC(c1ccc(F)cc1)c1ccc(F)cc1)N2 (stereo partly drawn) [Compound 9, S-(+)-N-nor-2β-Carboethoxy-3α-[bis(4-fluorophenyl)methoxy]tropane] | 8.87 ± 1.02 nM | 63 | 17100 ± 2480 nM | 2150 ± 222 nM | 242 |  |  |
| COC(=O)/C=C/[C@@H]1C2CCC(C[C@@H]1OC(c1ccc(F)cc1)c1ccc(F)cc1)N2C (stereo partly drawn) [Compound 5, S-(+)-2β-(2′-(methoxycarbonyl)eth-1′-enyl)-3α-[bis(4-fluorophenyl)methoxy]tropane] | 4.69 ± 0.6 nM | 54 | 1380 ± 81 nM | 572 ± 51 nM | 115 | 278 | Ki (DAT [1]): 4.96 nM |
| C=C[C@@H]1C2CCC(C[C@@H]1OC(c1ccc(F)cc1)c1ccc(F)cc1)N2C (stereo partly drawn) [Compound 4, S-(+)-2β-Ethenyl-3α-[bis(4-fluorophenyl)methoxy]tropane] | 1.81 nM | 261 | 163 ± 23.1 nM | 1790 ± 114 nM | 989 | 90 |  |
| CN1C2CCC1[C@@H](CO)[C@@H](OC(c1ccc(F)cc1)c1ccc(F)cc1)C2 (stereo partly drawn) [Compound 2, S-(+)-2β-hydroxymethyl-3α-[bis(4-fluorophenyl)methoxy]tropane] |  | 279 | 109 ± 15.1 nM | 910 ± 65 nM | 258 | 31 | Ki (DAT [1]): 3.52 ± 0.42 nM |
| COC(=O)[C@@H]1C2CCC(C[C@@H]1OC(c1ccc(F)cc1)c1ccc(F)cc1)N2C (stereo partly shown) [Compound 1a] | 2.94 nM | 91 | 133 ± 4.16 nM | 689 ± 58.4 nM | 234 | 45 | Ki (NET [5]): 269 nM |
| CCOC(=O)[C@@H]1C2CCC(C[C@@H]1OC(c1ccc(F)cc1)c1ccc(F)cc1)N2C (stereo partly shown) [Compound 1b] | 6.87 ± 0.33 nM | 91 | 1890 ± 132 nM | 1850 ± 270 nM | 269 | 275 | Ki (NET [5]): 629 ± 31 nM |
| COC(=O)CC[C@@H]1C2CCC(C[C@@H]1OC(c1ccc(F)cc1)c1ccc(F)cc1)N2C (stereo partly drawn) [Compound 6, S-(+)-2β-(2′-(Methoxycarbonyl)ethyl)-3α-[bis(4-fluorophenyl)methoxy]tropane] | 3.74 nM | 121 | 3110 ± 435 nM | 1070 ± 118 nM | 286 | 831 |  |
| CC(C)OC(=O)C1C(OC(c2ccc(F)cc2)c2ccc(F)cc2)CC2CCC1N2C (stereo not shown) [MFZ 2-74] |  |  |  |  |  |  | Time of maximal displacement of [125I]RTI-121 after injection ([6]; IP injection of displacer, striatum vs cerebellum, FIG. 3): not obtained; Time at which maximal displacement of [125I]RTI-121 would likely be obtained ([6]; IP injection, FIG. 3C, maximal displacement not obtained in the test): > 3 h |
| CN1[C@@H]2CC[C@H]1[C@H](COC(=O)CCCc1ccc([N+](=O)[O-])cc1)[C@@H](OC(c1ccc(F)cc1)c1ccc(F)cc1)C2 [Compound 7, S-(+)-2β-{[4-(4′-Nitrophenyl)butyryl]oxymethyl}-3α-[bis(4-fluorophenyl)methoxy]tropane] |  |  |  | 3780 ± 390 nM |  |  | Ki (muscarinic M1 receptor [3]): 708 ± 102 nM |
| C=CCN1[C@@H]2CC[C@H]1C[C@@H](OC(c1ccc(F)cc1)c1ccc(F)cc1)C2 [Compound 13] |  | 178 |  |  | 324 | 20 | Effect (of a 50% effective nicotine dose after pretreatment) [7]: 22.4%; Ki (DAT [8]; read-out: DAT [3H]WIN 35,428 Ki ± SEM; comparative data taken from Agoston et al. 1997; cited from earlier work): 8.79 ± 0.52 nM; Ki (muscarinic M1 receptor [9]; [15]): 177 ± 21.1 nM; Ki (NET [10]): 1570 ± 242 nM; Ki (SERT [11]; [15]): 2850 ± 62.5 nM |
| CCCCN1C2CCC1[C@@H](C(=O)OCC)[C@@H](OC(c1ccc(F)cc1)c1ccc(F)cc1)C2 (stereo partly drawn) [Compound 10, S-(+)-N-Butyl-2β-carboethoxy-3α-[bis(4-fluorophenyl)methoxy]tropane] | 8.18 ± 0.17 nM | 71 | 3200 ± 298 nM | 2500 ± 327 nM | 305 | 391 |  |
| COC(=O)C1C(OC(c2ccc(Cl)cc2)c2ccc(Cl)cc2)CC2CCC1N2C (racemic) [(±)-14] |  |  |  |  |  |  | Ki (DAT [1]; read-out: DAT binding Ki): 23.4 ± 1.5 nM |
| CN1C2CCC1[C@@H](COC(=O)CCCc1ccc(N)cc1)[C@@H](OC(c1ccc(F)cc1)c1ccc(F)cc1)C2 (stereo partly drawn) [Compound 8, S-(−)-2β-{[4-(4′-Aminophenyl)butyryl]oxymethyl}-3α-[bis(4-fluorophenyl)methoxy]tropane] | 27.6 ± 0.85 nM |  | 342 ± 33.7 nM | 1390 ± 145 nM |  | reduced DAT/M1 selectivity | Binding selectivity DAT/NET (NET [2]): 16; Binding selectivity DAT/M1 (muscarinic M1 receptor [3]): 12; Binding selectivity DAT/SERT (SERT [4]): 50 |
| C=CCN1C2CCC1[C@@H](C(=O)OCC)[C@@H](OC(c1ccc(F)cc1)c1ccc(F)cc1)C2 (stereo partly drawn) [Compound 11, S-(+)-N-Allyl-2β-carboethoxy-3α-[bis(4-fluorophenyl)methoxy]tropane] | 11 ± 0.94 nM | 85 | 11400 ± 1650 nM | 2280 ± 125 nM | 207 | 1036 |  |
| CCCCN1[C@@H]2CC[C@H]1C[C@@H](OC(c1ccc(F)cc1)c1ccc(F)cc1)C2 [Compound 12] |  | 153 |  |  | 139 | 41 | Effect (of a 50% effective nicotine dose after pretreatment) [7]: 2.67%; Ki (DAT [8]; comparative data taken from Agoston et al. 1997; read-out: DAT [3H]WIN 35,428 Ki ± SEM; cited from earlier work): 9.7 ± 0.91 nM; Ki (muscarinic M1 receptor [9]): 399 ± 26.8 nM; Ki (NET [10]): 1490 ± 190 nM; Ki (SERT [11]): 1350 ± 151 nM |
